Results taken from patent US5453369A, “Enzyme for producing novel cyclooisomaltooligosaccharides” (Kikkoman Corporation, priority 1992, dated 1995).

Key:
[1] = system: Glucodextranase, i.e. exo-type dextranase; assay: enzymatic hydrolysis with glucodextranase (exo-type dextranase); type: biochemical; conditions: 1% solution; FIG. 2
Source text: 10. Glucodextranase, i.e. exo-type dextranase, was allowed to act on the present compounds (1% solution), but they were not hydrolyzed at all as shown in FIG. 2.

[2] = discoloration / decomposition temperature (melting point measuring instrument); type: physicochemical; conditions: definite melting points could not be determined
Source text: 3. The definite melting points of the present compounds could not be determined in a melting point measuring instrument manufactured by Yanagimoto Co., Ltd. Their discoloration temperature ranges together with decomposition temperatures are as follows: […]

hydrolysis by glucodextranase [1]	discoloration temperature ranges together with decomposition temperatures [2]	SMILES
completely hydrolyzed		OC[C@H]1O[C@H](OC[C@H]2O[C@H](OC[C@H]3O[C@H](OC[C@H]4O[C@H](OC[C@H]5O[C@H](OC[C@H]6OC(O)[C@H](O)[C@@H](O)[C@@H]6O)[C@H](O)[C@@H](O)[C@@H]5O)[C@H](O)[C@@H](O)[C@@H]4O)[C@H](O)[C@@H](O)[C@@H]3O)[C@H](O)[C@@H](O)[C@@H]2O)[C@H](O)[C@@H](O)[C@@H]1O (some centres unmarked) [isomaltohexaose]
	238-241 °C	O[C@@H]1[C@@H](O)[C@H]2OC[C@H]3O[C@H](OC[C@H]4O[C@H](OC[C@H]5O[C@H](OC[C@H]6O[C@H](OC[C@H]7O[C@H](OC[C@H]8O[C@H](OC[C@H]9O[C@H](OC[C@@H](O2)[C@H]1O)[C@H](O)[C@@H](O)[C@@H]9O)[C@H](O)[C@@H](O)[C@@H]8O)[C@H](O)[C@@H](O)[C@@H]7O)[C@H](O)[C@@H](O)[C@@H]6O)[C@H](O)[C@@H](O)[C@@H]5O)[C@H](O)[C@@H](O)[C@@H]4O)[C@H](O)[C@@H](O)[C@@H]3O [Cycloisomaltooctaose, cycloisomaltooctaose]
	239-242 °C	O[C@@H]1[C@@H](O)[C@H]2OC[C@H]3O[C@H](OC[C@H]4O[C@H](OC[C@H]5O[C@H](OC[C@H]6O[C@H](OC[C@H]7O[C@H](OC[C@H]8O[C@H](OC[C@H]9O[C@H](OC[C@H]%10O[C@H](OC[C@@H](O2)[C@H]1O)[C@H](O)[C@@H](O)[C@@H]%10O)[C@H](O)[C@@H](O)[C@@H]9O)[C@H](O)[C@@H](O)[C@@H]8O)[C@H](O)[C@@H](O)[C@@H]7O)[C@H](O)[C@@H](O)[C@@H]6O)[C@H](O)[C@@H](O)[C@@H]5O)[C@H](O)[C@@H](O)[C@@H]4O)[C@H](O)[C@@H](O)[C@@H]3O [Cycloisomaltononaose, cycloisomaltononaose]
	234-238 °C	O[C@@H]1[C@@H](O)[C@H]2OC[C@H]3O[C@H](OC[C@H]4O[C@H](OC[C@H]5O[C@H](OC[C@H]6O[C@H](OC[C@H]7O[C@H](OC[C@H]8O[C@H](OC[C@@H](O2)[C@H]1O)[C@H](O)[C@@H](O)[C@@H]8O)[C@H](O)[C@@H](O)[C@@H]7O)[C@H](O)[C@@H](O)[C@@H]6O)[C@H](O)[C@@H](O)[C@@H]5O)[C@H](O)[C@@H](O)[C@@H]4O)[C@H](O)[C@@H](O)[C@@H]3O [Cycloisomaltoheptaose, cycloisomaltoheptaose]
completely hydrolyzed		OC[C@H]1O[C@H](OC[C@H]2O[C@H](OC[C@H]3O[C@H](OC[C@H]4O[C@H](OC[C@H]5O[C@H](OC[C@H]6O[C@H](OC[C@H]7OC(O)[C@H](O)[C@@H](O)[C@@H]7O)[C@H](O)[C@@H](O)[C@@H]6O)[C@H](O)[C@@H](O)[C@@H]5O)[C@H](O)[C@@H](O)[C@@H]4O)[C@H](O)[C@@H](O)[C@@H]3O)[C@H](O)[C@@H](O)[C@@H]2O)[C@H](O)[C@@H](O)[C@@H]1O (some centres unmarked) [isomaltoheptaose]
